The test system of one data set is human dendritic cells. The experiment in a line: Transfection of human dendritic cells with pEGFP-N1, count of fluorescent positive cells. The format is cell-based.
For a further data set, the system named is HepG2 cells. In words: Transfection of HepG2 cells in the presence of serum. The format is cell-based. As to conditions: 10% FCS, optimum charge ratio for each peptide, pCMVβ. Here is the method:
These transfection complexes were then tested for their comparative ability to transfect HepG2 cells in the presence of 10% FCS (Figure 32).

The subject of data set [1] is KLN 205 cells. In words: Uptake of YOYO-1 labelled DNA complexes by KLN 205 cells (FACScan). The format is cell-based, mouse. How it is done:
KLN 205 cells were plated at a density of 1.5×10^5 cells per well in 6 well plates one day prior to the addition of DNA. Plasmid DNA (pCMVgal) was labeled with the fluorescent dye: YOYO-1 (Molecular Probes, Eugene, OR) at a ratio of 1 dye molecule per 100 bp (i.e. 1.5 µl of a 10 µM YOYO-1 solution per µg of DNA). The DNA was diluted to 40 µg/ml with 10 mM HEPES, pH 7.3. […] The transfection complex solution was left for 1 hour at room temperature before it was applied to the cells in EMEM/120 µM chloroquine with or without FCS at a DNA concentration of 2 µg/well (i.e. 100 µl of complex added to 900 µl medium for one well). After 4 hours of incubation at 37°C the cells were washed twice with PBS and harvested with Trypsin/EDTA. The cell associated fluorescence was analyzed using a FACScan (Becton Dickinson).

A short description of data set [2]: Photon correlation spectroscopy (PCS) particle size of K6CL22-DNA complexes. The format is physicochemical. As to conditions: 150mM NaCl, one hour at room temperature, DNA 40 µg/ml. How it is done: Complexes between K6CL22 and DNA were formed in the following way in a laminar flow hood: A stock solution of K6CL22 (typically 8-12mg/ml) was stored in water at -20°C. This was thawed and diluted to 4-400µg/ml in either 10mM HEPES pH7.4 (Hepes) or 10mM HEPES/150mM NaCl pH 7.4 (HBS). (It should be noted that these non-reducing conditions favor the formation of peptide dimers via disulfide bonding between peptides of cysteine residues in the peptide). A stock solution of pCMVβ plasmid DNA (typically 2-4mg/ml in either water or TE buffer) was diluted to 40 µg/ml in Hepes or HBS. Peptide (typically 0.4-1ml) was added to an equal volume of diluted DNA. Different target ratios of Peptide:DNA were achieved by varying the concentration of added peptide. Samples were immediately mixed by gently sucking up and down in a pipette tip and left to incubate at room temperature for a minimum of one hour or if required overnight at 4°C.
In Fig. 1, peptide and DNA were mixed as described above and incubated over night at 4°C. The final DNA concentration was 40µg/ml. […]
For PCS analysis the buffers used in the preparation of samples were filtered through 20nm filters. […] Samples were allowed to equilibrate to 25°C prior to measuring, and an average Zav was determined from a minimum of three measurements. […] Zav and intensity and volume distributions were determined using Malvern PC S software. […]

For data set [3], the system named is KLN 205 cells. In words: Transfection of KLN 205 cells, luminescence and X-gal. The format is cell-based, mouse. As to conditions: for % expressing cells / average light units: 120 µM chloroquine, 2 µg DNA/well; for average light units: charge ratio +2.
The next data set relates to Cos7 cells. In words: Transfection of Cos cells with pCMVβ, Galacto-Light β-galactosidase assay. The format is cell-based, monkey. As to conditions: chloroquine, 5 hours, triplicate. How it is done:
The DNA and complex solutions were made as follows: • DNA solution: 100 µg/ml pCMVβ, 25 mM phosphate pH 7.4, 0.6 M NaCl. Complex solution: 100 µg/ml pCMVβ, 25 mM phosphate pH 7.4, 0.6 M NaCl, 200 µg/ml K6CL22. These solutions were incubated at room temperature for 1 hour and then 4°C overnight. Cos cells were seeded at 1×10^5 cells per well in 6 well plates (in DMEM, 10% Fetal calf serum (FCS)) 24 hours before incubation with complex or DNA.
The DNA and complex solutions were diluted into PEG diluent (10% PEG 8000, 25 mM phosphate pH 7.4, 37.5 mM NaCl) to a final DNA concentration of 20 µg/ml. Just prior to transfection the Cos cells were washed with PBS and 875 µl RATQ medium (RAT medium with 137.14 µM chloroquine) was added per well. 125 µl of diluted complex or DNA solution was then added per well and the cells were incubated at 37°C for 5 hours. […] 100 µl of Reaction buffer is added to each tube, the samples are incubated at room temperature for 60 mins and then analyzed using Light Emission Accelerator and a Barthoid lumat LB 9501 luminometer. The protein concentration of the cleared cell lysate was measured using the Bio-Rad DC protein assay kit (Bio-Rad). The results are then expressed as relative light units per mg of protein (Figure 7). […]

As for `CC[C@H](C)[C@H](NC(=O)[C@H](CC(N)=O)NC(=O)[C@H](CS)NC(=O)[C@H](CCSC)NC(=O)[C@H](CCCNC(=N)N)NC(=O)[C@H](CCC(=O)O)NC(=O)[C@H](Cc1ccc(O)cc1)NC(=O)[C@H](C)NC(=O)[C@H](CO)NC(=O)[C@H](CCCNC(=N)N)NC(=O)[C@@H](NC(=O)[C@H](CCCCN)NC(=O)[C@H](CCCNC(=N)N)NC(=O)CNC(=O)[C@H](CC(N)=O)NC(=O)[C@H](CCC(=O)O)NC(=O)CNC(=O)[C@H](CCCNC(=N)N)NC(=O)[C@H](Cc1c[nH]c2ccccc12)NC(=O)[C@H](Cc1ccccc1)NC(=O)CNC(=O)[C@H](CC(C)C)NC(=O)[C@H](Cc1ccccc1)NC(=O)CNC(=O)CNC(=O)[C@H](CCCCN)NC(=O)[C@H](CCCCN)NC(=O)[C@H](CCCCN)NC(=O)[C@H](CCCCN)NC(=O)[C@H](CCCCN)NC(=O)[C@@H](N)CCCCN)[C@@H](C)O)C(=O)N[C@@H](CC(C)C)C(=O)N[C@@H](CCCCN)C(=O)NCC(=O)N[C@@H](CCCCN)C(=O)O` [K6CL22 monomer], in the data set with human dendritic cells (peptide/DNA ratio between 2.0 and 4.0), the “transfection of dendritic cells, monomer versus dimer” value is reported as “transfects dendritic cells poorly compared with CL22 dimer”. Also, the “effect of FCS on transfection efficiency” value with human dendritic cells (presence of FCS compared to absence of FCS) was “greatly reduced”.
Regarding `CC[C@H](C)[C@H](NC(=O)[C@H](CC(N)=O)NC(=O)[C@H](CS)NC(=O)[C@H](CCSC)NC(=O)[C@H](CCCNC(=N)N)NC(=O)[C@H](CCC(=O)O)NC(=O)[C@H](Cc1ccc(O)cc1)NC(=O)[C@H](C)NC(=O)[C@H](CO)NC(=O)[C@H](CCCNC(=N)N)NC(=O)[C@@H](NC(=O)[C@H](CCCCN)NC(=O)[C@H](CCCNC(=N)N)NC(=O)CNC(=O)[C@H](CC(N)=O)NC(=O)[C@H](CCC(=O)O)NC(=O)CNC(=O)[C@H](CCCNC(=N)N)NC(=O)[C@H](Cc1c[nH]c2ccccc12)NC(=O)[C@H](Cc1ccccc1)NC(=O)CNC(=O)[C@H](CC(C)C)NC(=O)[C@H](Cc1ccccc1)NC(=O)CNC(=O)CNC(=O)[C@H](CCCCN)NC(=O)[C@H](CCCCN)NC(=O)[C@H](CCCCN)NC(=O)[C@H](CCCCN)NC(=O)[C@H](CCCCN)NC(=O)[C@@H](N)CCCCN)[C@@H](C)O)C(=O)N[C@@H](CC(C)C)C(=O)N[C@@H](CCCCN)C(=O)NCC(=O)N[C@@H](CCCCN)C(=O)O` [K6CL22], the “transfection compared with polylysine peptides or a histone based peptide” value with HepG2 cells is given as “greater”. The “uptake of complexed DNA compared to DNA complexed with a polylysine peptide” value in the data set with KLN 205 cells [1] (charge ratio +2, 120 µM chloroquine, 4 hours) is “taken up as efficiently”. For the same compound, the “uptake of complexed DNA compared to a polylysine peptide, presence of FCS” value in the data set on KLN 205 cells [1] (in the presence of FCS) is given as “less than that of a polylysine peptide”. In addition, in data set [2], the “size of large particles/aggregates of complex” value is on record as “approx. 1000 nm”. In addition, the “gene expression compared to NBC32 complexed plasmid DNA” value with KLN 205 cells [3] is listed as “higher”. In addition, in the data set with KLN 205 cells [3] (absence of FCS), the “% expressing cells” value worked out at 35% and the average light units was 3000 x 10^6 RLU. Moreover, in the data set on KLN 205 cells [3] (presence of FCS), the “% expressing cells” value stood at 5% and the average light units is 77 x 10^6 RLU. The “transfection efficiency, CL22-complexed versus CL26-complexed DNA” value in the data set on human dendritic cells (Figure 35, peptide/DNA ratio between 2 and 2.6) was “greater”. For the same compound, the “transfection of Cos cells (β-galactosidase, relative light units per mg of protein)” value with Cos7 cells is given as “very efficient transfection”.
For `CC[C@H](C)[C@H](NC(=O)[C@H](CC(N)=O)NC(=O)[C@H](CS)NC(=O)[C@H](CCSC)NC(=O)[C@H](CCCNC(=N)N)NC(=O)[C@H](CCC(=O)O)NC(=O)[C@H](Cc1ccc(O)cc1)NC(=O)[C@H](C)NC(=O)[C@H](CO)NC(=O)[C@H](CCCNC(=N)N)NC(=O)[C@@H](NC(=O)[C@H](CCCCN)NC(=O)[C@H](CCCNC(=N)N)NC(=O)CNC(=O)[C@H](CC(N)=O)NC(=O)[C@H](CCC(=O)O)NC(=O)CNC(=O)[C@H](CCCNC(=N)N)NC(=O)[C@H](Cc1c[nH]c2ccccc12)NC(=O)[C@H](Cc1ccccc1)NC(=O)CNC(=O)[C@H](CC(C)C)NC(=O)[C@H](Cc1ccccc1)NC(=O)CNC(=O)CNC(=O)[C@H](CCCCN)NC(=O)[C@H](CCCCN)NC(=O)[C@H](CCCCN)NC(=O)[C@H](CCCCN)NC(=O)[C@H](CCCCN)NC(=O)[C@H](CCCCN)NC(=O)[C@H](CCCCN)NC(=O)[C@H](CCCCN)NC(=O)[C@H](CCCCN)NC(=O)[C@H](CCCCN)NC(=O)[C@H](CCCCN)NC(=O)[C@@H](N)CCCCN)[C@@H](C)O)C(=O)N[C@@H](CC(C)C)C(=O)N[C@@H](CCCCN)C(=O)NCC(=O)N[C@@H](CCCCN)C(=O)O` [CL26], the “transfection efficiency, CL26-complexed versus CL22-complexed DNA” value in the data set with human dendritic cells (Figure 35, peptide/DNA ratio between 1 and 1.8) was “higher efficiency”; in the data set with human dendritic cells (Figures 33 and 34), “higher efficiency”.

(Values after patent EP1007549B1, “COMPOSITIONS AND METHODS FOR HIGHLY EFFICIENT TRANSFECTION” (Innovata Plc, priority 1997, dated 2006).)
